Results on 10 compounds are retold here after PubChem BioAssay (NCI).

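In this assay, cells in 96-well plates receive the compound at five concentrations for 48 hours. Endpoints are linearly interpolated between the surrounding concentrations. GI50: concentration for 50% inhibition of growth. At the TGI there is no net growth.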 Some results are limits rather than exact numbers.

Test systems include IGROV1 ovarian; T-47D breast; SF-539 CNS; CAKI-1 renal; NCI-H522 lung; U251 CNS; NCI-H226 lung; HCC-2998 colon; OVCAR-3 ovarian; ACHN renal.
What all share (assay): DTP human tumour cell line panel, 48 h

`COc1ccc(Nc2cc(C)nc(NCc3ccccc3)n2)cc1`: the GI50 in the assay with IGROV1 ovarian is 6.67 µM; in the assay on T-47D breast, 2.6 µM; in the assay on SF-539 CNS, 4.24 µM; with CAKI-1 renal, 3.9 µM; with NCI-H522 lung, 3.62 µM; in the assay with U251 CNS, 3.13 µM. The GI50 is 6.14 µM in the assay on NCI-H226 lung, 2.02 µM in the assay on HCC-2998 colon, 7.27 µM in the assay on OVCAR-3 ovarian and 4.44 µM with ACHN renal. Further, the total growth inhibition concentration (TGI) in the assay with IGROV1 ovarian was 23.4 µM; with T-47D breast, 11.3 µM; in the assay on SF-539 CNS it was 16.7 µM; in the assay on CAKI-1 renal it was 17.2 µM; in the assay on NCI-H522 lung, 19.2 µM; in the assay with U251 CNS it was 14.3 µM. In addition, the TGI with NCI-H226 lung is 21.3 µM; in the assay on HCC-2998 colon it was 4.04 µM; in the assay with OVCAR-3 ovarian, 24.5 µM; in the assay on ACHN renal, 17.7 µM.
With `O=[N+]([O-])c1ccc(C2=Nn3c(nnc3-c3ccc(Cl)cc3)SC2)o1`, the TGI in the assay on IGROV1 ovarian amounted to 17.1 µM; in the assay on T-47D breast, 12.9 µM; with SF-539 CNS, 20.5 µM; in the assay on CAKI-1 renal, 18.4 µM; with NCI-H522 lung, 2 µM; in the assay on U251 CNS, 31.5 µM. In addition, the TGI with NCI-H226 lung amounted to 37.8 µM; with HCC-2998 colon it was 5.72 µM; in the assay with OVCAR-3 ovarian, 10.6 µM; in the assay with ACHN renal, 27.3 µM.
Consider `CC(=O)Nc1c(I)c(NC(C)=O)c(I)c(C(=O)O)c1I`, for which the GI50 in the assay on IGROV1 ovarian, in the assay with T-47D breast, with CAKI-1 renal, with NCI-H522 lung, in the assay with NCI-H226 lung and in the assay with HCC-2998 colon was above 100 µM in each case. The GI50 with OVCAR-3 ovarian and with ACHN renal was above 100 µM throughout. Further, the total growth inhibition concentration (TGI) with IGROV1 ovarian, in the assay on T-47D breast, in the assay on CAKI-1 renal, in the assay with NCI-H522 lung, in the assay with NCI-H226 lung and in the assay on HCC-2998 colon was above 100 µM throughout. Moreover, the TGI with OVCAR-3 ovarian and in the assay on ACHN renal was above 100 µM each time.
With `c1ccc2cc(NCNc3ccc4ccccc4c3)ccc2c1`, the TGI was determined as 35 µM with IGROV1 ovarian; 49.4 µM in the assay on T-47D breast; 71.3 µM with SF-539 CNS; 42.7 µM in the assay on CAKI-1 renal; 49.5 µM in the assay on NCI-H522 lung; 93.6 µM in the assay with U251 CNS. Moreover, the TGI in the assay with NCI-H226 lung is 46.5 µM; in the assay with OVCAR-3 ovarian, 29.2 µM; in the assay on ACHN renal it was 38 µM.
For the compound `N/C(=N/N=C/c1ccccc1)N/N=C\c1ccccc1`, the GI50 in the assay on IGROV1 ovarian was 8.6 µM; in the assay with T-47D breast, 4.73 µM; in the assay with CAKI-1 renal it was 5.02 µM; in the assay on NCI-H522 lung it was 5.23 µM; with U251 CNS, 5.08 µM; in the assay with NCI-H226 lung, 12.3 µM. The values for the GI50 with HCC-2998 colon, in the assay on OVCAR-3 ovarian and with ACHN renal were 7.21 µM, 2.66 µM and 6.4 µM, respectively. Also, the TGI in the assay with IGROV1 ovarian is above 100 µM; in the assay on T-47D breast, above 100 µM; with CAKI-1 renal, above 100 µM; in the assay with NCI-H522 lung, above 100 µM; with U251 CNS, 70.9 µM; with NCI-H226 lung, above 100 µM. The results for the TGI in the assay with HCC-2998 colon, in the assay with OVCAR-3 ovarian and in the assay on ACHN renal were 37.8 µM, 7.8 µM and above 100 µM, respectively.
With `COc1ccc2c(O)c(/C=C3\N=Nc4ccccc43)oc2c1C[C@@H]1CCNC[C@H]1F`, the GI50 is 10.9 µM with IGROV1 ovarian; 18.5 µM with T-47D breast; 1.6 µM with SF-539 CNS; 12.3 µM in the assay on CAKI-1 renal; 1.67 µM with NCI-H522 lung; 3.17 µM in the assay with U251 CNS. Besides, the GI50 in the assay on NCI-H226 lung is 13 µM; with OVCAR-3 ovarian, 1.99 µM; in the assay on ACHN renal, 1.74 µM. In addition, the TGI in the assay with IGROV1 ovarian was found to be 26.2 µM; in the assay on T-47D breast it was 40.8 µM; with SF-539 CNS, 3.06 µM; in the assay on CAKI-1 renal, 25 µM; in the assay on NCI-H522 lung, 3.94 µM; in the assay with U251 CNS, 10.6 µM. The TGI with NCI-H226 lung came to 31.9 µM; in the assay on OVCAR-3 ovarian, 3.98 µM; in the assay with ACHN renal it was 3.41 µM.
With `CC1=NN(c2ccc(S(=O)(=O)O)cc2)C(=O)/C1=C/c1ccc(Cl)cc1`, the TGI in the assay on IGROV1 ovarian, in the assay on T-47D breast, in the assay on SF-539 CNS, with CAKI-1 renal, in the assay with NCI-H522 lung and in the assay on U251 CNS was above 100 µM in each case. For the same compound, the TGI in the assay with NCI-H226 lung, in the assay on OVCAR-3 ovarian and in the assay on ACHN renal was above 100 µM throughout.
As to `COc1ccc(Sc2nc3cc(N)cc(N)c3nc2-c2ccccc2)cc1`, the GI50 was above 100 µM in the assay with T-47D breast; 10 µM in the assay on SF-539 CNS; 9.71 µM with CAKI-1 renal; 3.2 µM with NCI-H522 lung; above 100 µM with U251 CNS. For the same compound, the total growth inhibition concentration (TGI) with T-47D breast, in the assay on SF-539 CNS, in the assay on CAKI-1 renal, in the assay on NCI-H522 lung and in the assay with U251 CNS was above 100 µM in each case.
As for `N#C[Se]CCN1C(=O)C2C(C1=O)[C@H]1C=C[C@@H]2S1` (stereo partly drawn), the GI50 was 1.59 µM with IGROV1 ovarian; 2.52 µM with T-47D breast; 1.69 µM in the assay on SF-539 CNS; 1.9 µM in the assay on CAKI-1 renal; 1.8 µM with U251 CNS; 2.18 µM with HCC-2998 colon. Further, the GI50 in the assay on OVCAR-3 ovarian is 1.94 µM; in the assay with ACHN renal it was 2.07 µM. For the same compound, the TGI in the assay on IGROV1 ovarian was 3.48 µM; with T-47D breast, 7.78 µM; in the assay on SF-539 CNS, 3.18 µM; in the assay on CAKI-1 renal, 3.39 µM; with U251 CNS, 4.13 µM; in the assay on HCC-2998 colon it was 5.44 µM. The TGI with OVCAR-3 ovarian came out at 3.85 µM; with ACHN renal, 3.99 µM.
Consider `C#CCN(Cc1nc2cc(C(F)(F)F)ccc2nc1-c1ccccc1)c1ccc(C)cc1`, for which the GI50 was 6.13 µM with IGROV1 ovarian; 2.85 µM with T-47D breast; 24.3 µM in the assay with SF-539 CNS; 8.15 µM in the assay on CAKI-1 renal; 3.3 µM in the assay with NCI-H522 lung; 11.6 µM with U251 CNS. Besides, the GI50 with NCI-H226 lung was 8.07 µM; with OVCAR-3 ovarian, 3.7 µM. Further, the TGI in the assay on IGROV1 ovarian is above 64.9 µM; in the assay with T-47D breast, 31.6 µM; in the assay with SF-539 CNS, above 100 µM; in the assay with CAKI-1 renal, above 43.4 µM; in the assay on NCI-H522 lung, 26 µM; in the assay with U251 CNS, above 38.1 µM. Moreover, the figures for the TGI in the assay on NCI-H226 lung, with OVCAR-3 ovarian and in the assay on ACHN renal were 33 µM, 16.8 µM and above 33.5 µM, respectively.
